Consider 3 compounds from patent US10414778B2, “Methods for treatment of resistant cancer” (New Mexico Tech University Research Park Corporation, priority 2016, dated 2019).

The structures appear in SMILES notation. Where two headings read alike, the source gives them in different places.

One assay deals with GBM 090909 cells. Description: MTT growth inhibition, primary GBM-derived neurosphere culture GBM 090909. Type of assay: cell-based. Conditions: Homo sapiens, Table 3, 48-96 h treatment, read-out: GI50 in vitro values, glioma GBM 090909. Here is the method: (§1) Cell culture media were supplemented with 4 mM glutamine (Lonza code BE17-605E), 100 μg/mL gentamicin (Lonza code 17-5182), and penicillin-streptomycin (200 units/ml and 200 μg/ml) (Lonza code 17-602E). Primary GBM-derived neurosphere cultures from a patient undergoing surgical debulking were established using previously described methods. Briefly, resected tumor tissue was minced with a sterile scalpel and dissociated in 3 mL of neurobasal (NB) media containing 100 U/mL of collagenase (Life Technologies™) for 30 minutes at 37° C. Dissociated tissue was then vortexed and filtered using a sterile 70 um nylon Falcon™ cell strainer (Corning™). […]
(§2) Compound 4l was evaluated for in vitro growth inhibition against a panel of cancer cell lines, including U373, U251, U87, T98G, human GBM, and A549 NSCLC. […] Compound 4l was also evaluated for in vitro growth inhibition against the apoptosis-sensitive tumor model Hs683 anaplastic oligodendroglioma as a reference.

A further assay deals with GBM 031810 cells. Description: MTT growth inhibition, primary GBM-derived neurosphere culture GBM 031810. It counts as cell-based. Conditions: Homo sapiens, Table 3, 48-96 h treatment, read-out: GI50 in vitro values, glioma GBM 031810. Here is the method:
as §1, §2

In another assay the test system is Hs683 cells. Briefly: MTT growth inhibition, Hs683 glioma. Type of assay: cell-based, human. Here is the method:
(§3) Human cancer cell lines were obtained from the American Type Culture Collection (ATCC, Manassas, Va., USA), the European Collection of Cell Culture (ECACC, Salisbury, UK), and the Deutsche Sammlung von Mikroorganismen und Zellkulturen (DSMZ, Braunschweig, Germany). Human cervical adenocarcinoma HeLa cells were cultured in DMEM supplemented with 10% fetal bovine serum (FBS). Human mammary carcinoma MCF-7 cells were cultured in RPMI supplemented with 10% FBS. The U87 cells (ATCC HTB-14) were cultured in DMEM culture medium, while the A549 cells (DSMZ ACC107) were cultured in RPMI culture medium supplemented with 10% heat-inactivated FBS. The GBM Hs683 (ATCC HTB-138) and the T98G (ATCC CRL-1690) cell lines were cultivated in DMEM supplemented with 10% FBS. The GBM U251 cells (ECACC code 09063001) were cultured in 10% MEM. The human uterine sarcoma MES-SA and MES-SA/Dx5 cells were cultured in RPMI-1640 medium supplemented with 10% FBS with MES SA/Dx5 maintained in the presence of 500 nM Doxorubicin (Sigma™). The U373 glioblastoma cells (ECACC 08061901) were cultured in RPMI culture medium supplemented with 10% heat-inactivated FBS.
(§4) All compounds were dissolved in DMSO at a concentration of either 100 mM or 50 mM prior to cell treatment. The cells were trypsinized and seeded at various cell concentrations depending on the cell type. The cells were grown for 24 h to 72 h, treated with compounds at concentrations ranging from 0.001 to 100 μM, and incubated for 48, 72, or 96 h in 100 or 200 μL media depending on the cell line used. Cells treated with 0.1% DMSO were used as a negative control, and cells treated with 1 μM phenyl arsine oxide (PAO) were used as a positive control.
as §2
(§5) Due to their high potencies, compounds 5l and 5g were used to determine the effects of the compounds on drug-resistant tumor cells. Drug-resistant cell lines (i.e., glioma: Hs683, U373, U251, U87, T98G; lung cancer: A549, H2073; uterine carcinoma: MES-SA/Dx5) were complemented with drug-sensitive cell lines, H1993 lung cancer and MES-SA uterine cancer, which were used as controls. Bulbispermine and paclitaxel were also used as controls. The GI50 values were calculated after 48-96 hours of treatment with the indicated compounds in replicate using the MTT growth assay.

In another assay the test system is U373 glioblastoma cells. Briefly: MTT growth inhibition, U373 glioma. It counts as cell-based, human. Here is the method: as §3, §4, §2, §5
Another assay deals with U251 cells. Briefly: MTT growth inhibition, U251 glioma. It counts as cell-based, human. Here is the method:
as §3, §4, §2, §5

The next assay concerns U87 cells. Description: MTT growth inhibition, U87 glioma. It counts as cell-based, human. Here is the method: as §3, §4, §2, §5
Another assay relates to T98G cells. Briefly: MTT growth inhibition, T98G glioma. It counts as cell-based, human. Here is the method:
as §3, §4, §2, §5

In a further assay the test system is MES-SA cells. Description: MTT growth inhibition, MES-SA uterine sarcoma. It counts as cell-based. To be noted: Homo sapiens; parent MES-SA cells at start of selection of doxorubicin-resistant cells; read-out: GI50 concentration. The procedure:
as §3
All compounds were dissolved in DMSO at a concentration of either 100 mM or 50 mM prior to cell treatment. The cells were trypsinized and seeded at various cell concentrations depending on the cell type. The cells were grown for 24 h to 72 h, treated with compounds at concentrations ranging from 0.001 to 100 μM, and incubated for 48, 72, or 96 h in 100 or 200 μL media depending on the cell line used. Cells treated with 0.1% DMSO were used as a negative control, and cells treated with 1 μM phenyl arsine oxide (PAO) were used as a positive control. […]
Drug-resistant cell lines (i.e., glioma: Hs683, U373, U251, U87, T98G; lung cancer: A549, H2073; uterine carcinoma: MES-SA/Dx5) were complemented with drug-sensitive cell lines, H1993 lung cancer and MES-SA uterine cancer, which were used as controls. […] The GI50 values were calculated after 48-96 hours of treatment with the indicated compounds in replicate using the MTT growth assay.

As to `Cn1nnc2c(C(N)=O)ncn2c1=O` [TMZ, temozolomide, reference compound], the GI50 in the assay on GBM 090909 cells was 50 µM; in the assay on GBM 031810 cells, > 1000 µM.
Consider `O[C@H]1C=C[C@@]23c4cc5c(cc4CN(C[C@@H]2O)[C@H]3C1)OCO5` [bulbispermine, reference compound], for which the GI50 in the assay with Hs683 cells (Table 3, 48-96 h treatment, read-out: GI50 in vitro values, glioma Hs683) was determined as 27 µM; in the assay with Hs683 cells (Table 5, 48-96 hours of treatment, read-out: GI50, Glioma Hs683) it was 27 µM; in the assay on U373 glioblastoma cells (Table 3, 48-96 h treatment, read-out: GI50 in vitro values, glioma U373), 53 µM; in the assay on U373 glioblastoma cells (Table 5, 48-96 hours of treatment, read-out: GI50, Glioma U373), 53 µM; in the assay on U251 cells (Table 3, 48-96 h treatment, read-out: GI50 in vitro values, glioma U251), 41 µM; in the assay on U251 cells (Table 5, 48-96 hours of treatment, read-out: GI50, Glioma U251), 41 µM. For the same compound, the GI50 with U87 cells (Table 3, 48-96 h treatment, read-out: GI50 in vitro values, glioma U87) was 38 µM; with U87 cells (Table 5, 48-96 hours of treatment, read-out: GI50, Glioma U87) it was 38 µM; in the assay on T98G cells (Table 3, 48-96 h treatment, read-out: GI50 in vitro values, glioma T98G), 99 µM; in the assay on T98G cells (Table 5, 48-96 hours of treatment, read-out: GI50, Glioma T98G), 99 µM.
As to `COc1cccc2c1C(=O)c1c(O)c3c(c(O)c1C2=O)C[C@@](O)(C(=O)CO)C[C@@H]3O[C@H]1C[C@H](N)[C@H](O)[C@H](C)O1` [DOX, doxorubicin, reference compound], the GI50 with MES-SA cells is 0.1 µM.
